In PubChem BioAssay (NCI):
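48-hour exposure; five concentrations; linearly interpolated endpoints. TGI: total growth inhibition.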

Columns and labels:
Experiment in all cases: NCI anticancer screen, dose series, 48 h
[1] = test system: IGROV1 ovarian
[2] = test system: UACC-257 melanoma
[3] = test system: SN12C renal
[4] = test system: NCI/ADR-RES ovarian
[5] = test system: SNB-19 CNS
[6] = test system: SW-620 colon
[7] = test system: SK-MEL-28 melanoma
[8] = test system: HCT-116 colon
[9] = test system: SNB-75 CNS
[10] = test system: SK-OV-3 ovarian
[11] = test system: EKVX NSCLC
[12] = test system: MALME-3M melanoma
[13] = test system: M14 melanoma
[14] = test system: HT29 colon
[15] = test system: HCC-2998 colon
[16] = test system: HS 578T breast
[17] = test system: SK-MEL-2 melanoma
[18] = test system: RXF 393 renal
[19] = test system: A549 NSCLC
[20] = test system: SF-539 CNS
[21] = test system: SF-295 CNS
[22] = test system: A498 renal
[23] = test system: KM12 colon
[24] = test system: HOP-92 NSCLC
[25] = test system: MCF7 breast
[26] = test system: MDA-MB-231 breast
[27] = test system: PC-3 prostate
[28] = test system: SK-MEL-5 melanoma
[29] = test system: 786-0 renal
[30] = test system: SR leukemia
[31] = test system: MOLT-4 leukemia
[32] = test system: NCI-H460 lung
[33] = test system: BT-549 breast
[34] = test system: SF-268 CNS
[35] = test system: NCI-H226 lung
[36] = test system: CAKI-1 renal
[37] = test system: OVCAR-5 ovarian
[38] = test system: UO-31 renal
[39] = test system: OVCAR-4 ovarian
[40] = test system: NCI-H522 lung
[41] = test system: TK-10 renal
[42] = test system: U251 CNS
[43] = test system: K-562 leukemia
[44] = test system: MDA-N
[45] = test system: HOP-62 NSCLC
[46] = test system: NCI-H23 lung
[47] = test system: OVCAR-8 ovarian
[48] = test system: COLO 205 colon
[49] = test system: DU-145 prostate
[50] = test system: T-47D breast
[51] = test system: OVCAR-3 ovarian
[52] = test system: MDA-MB-435
[53] = test system: LOX IMVI melanoma
[54] = test system: HL-60(TB) leukemia
[55] = test system: CCRF-CEM leukemia
[56] = test system: UACC-62 melanoma
[57] = test system: HCT-15 colon
[58] = test system: ACHN renal
[59] = test system: RPMI-8226 leukemia

CSC1(SC)N2Cc3ccccc3N=C2C1(c1ccccc1)c1ccccc1
TGI [1]: > 100 µM
TGI [2]: > 90.2 µM
TGI [3]: > 64.1 µM
TGI [4]: > 67 µM
TGI [5]: > 100 µM
TGI [6]: > 63.7 µM
TGI [7]: > 59.5 µM
TGI [8]: > 100 µM
TGI [9]: > 100 µM
TGI [10]: > 100 µM
TGI [11]: > 89 µM
TGI [12]: 27.6 µM
TGI [13]: > 100 µM
TGI [14]: > 100 µM
TGI [15]: 23.2 µM
TGI [16]: > 82.5 µM
TGI [17]: > 58.1 µM
TGI [18]: > 48.6 µM
TGI [19]: > 100 µM
TGI [20]: 31.6 µM
TGI [21]: > 100 µM
TGI [22]: > 46.9 µM
TGI [23]: > 35.6 µM
TGI [24]: > 27.3 µM
TGI [25]: > 87.9 µM
TGI [26]: > 100 µM
TGI [27]: > 100 µM
TGI [28]: 28.8 µM
TGI [29]: > 100 µM
TGI [30]: 9.36 µM
TGI [31]: > 44.9 µM
TGI [32]: 64.3 µM
TGI [33]: > 92.6 µM
TGI [34]: > 100 µM
TGI [35]: > 100 µM
TGI [36]: > 100 µM
TGI [37]: > 77.9 µM
TGI [38]: > 100 µM
TGI [39]: > 100 µM
TGI [40]: 29.4 µM
TGI [41]: > 100 µM
TGI [42]: > 58.9 µM
TGI [43]: > 100 µM
TGI [44]: > 96.7 µM
TGI [45]: > 100 µM
TGI [46]: > 100 µM
TGI [47]: > 79.6 µM
TGI [48]: 15.6 µM
TGI [49]: > 100 µM
TGI [50]: > 100 µM
TGI [51]: 28.3 µM
TGI [52]: 16 µM
TGI [53]: 44.4 µM
TGI [54]: > 53.1 µM
TGI [55]: > 65 µM
TGI [56]: > 55.3 µM
TGI [57]: > 100 µM
TGI [58]: > 100 µM
TGI [59]: 97.1 µM

C[C@]12CC[C@H](O)CC1=CC[C@@H]1[C@@H]2CC[C@]2(C)c3nc(Cl)ccc3C[C@@H]12
TGI [1]: > 100 µM
TGI [2]: > 100 µM
TGI [3]: > 94.8 µM
TGI [4]: > 100 µM
TGI [5]: > 100 µM
TGI [6]: > 100 µM
TGI [7]: > 100 µM
TGI [8]: > 100 µM
TGI [9]: 46.8 µM
TGI [10]: 99.2 µM
TGI [11]: > 71.6 µM
TGI [12]: > 100 µM
TGI [13]: > 100 µM
TGI [14]: > 100 µM
TGI [15]: > 100 µM
TGI [16]: > 100 µM
TGI [17]: > 100 µM
TGI [18]: > 100 µM
TGI [19]: 96.9 µM
TGI [20]: 37.2 µM
TGI [21]: > 100 µM
TGI [22]: > 100 µM
TGI [23]: > 100 µM
TGI [24]: > 100 µM
TGI [25]: > 100 µM
TGI [26]: > 100 µM
TGI [27]: > 100 µM
TGI [28]: > 100 µM
TGI [29]: > 100 µM
TGI [30]: > 100 µM
TGI [31]: > 100 µM
TGI [32]: > 100 µM
TGI [33]: > 100 µM
TGI [34]: > 75.7 µM
TGI [35]: > 100 µM
TGI [36]: > 100 µM
TGI [37]: > 100 µM
TGI [39]: > 100 µM
TGI [40]: > 100 µM
TGI [41]: > 100 µM
TGI [42]: > 100 µM
TGI [43]: > 100 µM
TGI [44]: > 100 µM
TGI [45]: > 67.6 µM
TGI [46]: > 100 µM
TGI [47]: > 100 µM
TGI [48]: > 100 µM
TGI [49]: > 100 µM
TGI [50]: > 100 µM
TGI [51]: > 73.2 µM
TGI [52]: > 100 µM
TGI [53]: > 100 µM
TGI [54]: > 100 µM
TGI [55]: > 50.4 µM
TGI [56]: > 100 µM
TGI [57]: > 81.3 µM
TGI [58]: > 100 µM
TGI [59]: > 100 µM
